Patent US10209240B2, “Predicting human developmental toxicity of pharmaceuticals using human stem-like cells and metabolomic ratios” (STEMINA BIOMARKER DISCOVERY, INC., priority 2012, dated 2019)

Tests used:
[1] = tested on: WA09 hES cells; test: Phase 1 untargeted metabolomics of hES cell spent media, single concentration (ornithine, cystine, o/c ratio); type: cell-based, human; details: for Cystine abundance relative to the reference treatment / Ornithine abundance relative to the reference treatment: Phase 1, spent media, 72 hours, reference 0.1% DMSO; for Cystine abundance relative to the reference treatment: Cmax exposure (IC30 for hydroxyurea); for Ornithine abundance relative to the reference treatment: Cmax or IC30 exposure
Experimental: Undifferentiated hES Cell Line Maintenance (Phases 1 and 2).
96-well hES Cell Plating (Phases 1 and 2). […] Compound exposure began 24 hours after plating.
Sample Preparation (Phases 1 and 2).
Phase 1 Mass Spectrometry. LC-HRMS data was acquired for nine biological replications on three separate LC-HRMS systems with three replications evaluated on each system. Each system consisted of an Agilent 1290 Infinity LC system interfaced either with an Agilent G6520A QTOF high resolution mass spectrometer (QTOF HRMS), an Agilent G6530A QTOF HRMS, or an Agilent G6224A TOF HRMS system (Agilent Technologies, Santa Clara, Calif.). To facilitate separation of biological small molecules with a wide range of structures and to allow increased retention of hydrophilic species, Hydrophilic Interaction Liquid Chromatography (HILIC) was utilized. A Luna HILIC column (Phenomenex, Torrance, Calif.) with dimensions 3×100 mm and 3 μm particle size was used and maintained at 30° C. […] Electrospray ionization was employed using a dual ESI source. The scan range of the instrument was 70-1600 Da. Data acquisition was performed with MassHunter Acquisition software (version B 04.00, Agilent Technologies) using high-resolution exact mass conditions and each set of samples was run first under ESI positive polarity then under ESI negative polarity conditions.
Peak Detection (Phases 1 and 2). […] Mass features (peaks) were detected using the centwave algorithm.
Ornithine/Cystine Ratio Calculation.
Teratogenicity Threshold Selection (Phases 1 and 2).
Phase 1 Prediction of Developmental Toxicity Potential. A test compound was classified as a developmental toxicant if the mean of the change in the abundance in the treated sample compared to the reference treatment (DMSO) across the nine experimental replications for either metabolite or the o/c ratio exceeded its respective teratogenicity threshold at the concentration tested. The predictive accuracy (correct prediction), sensitivity (true positive rate), and specificity (true negative rate) were based on scoring the predicted result (teratogen or non-teratogen) against the known human teratogenicity of the compound.

[2] = tested on: hES cells; test: ADMA/cystine ratio simplified predictive model in hES cell spent media; type: cell-based, human; details: single dose per treatment; ratios less than 0.9 indicate teratogenicity
Method in brief: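 hES cell spent media were analysed for ADMA and cystine, each normalized to the DMSO reference, and their ratio formed. Each value is the median of independent blocks (6 reps each). A ratio cutoff of 0.9 classifies teratogens versus non-teratogens.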

[3] = tested on: Humans; details: cited from earlier work; for Humans (known human developmental toxicity): training and test set; for Known Effect: validation and test set treatments of Example 2
[4] = tested on: zebrafish; details: training and test set; weak/moderate and strong teratogens both labeled teratogen; cited from earlier work
[5] = tested on: WA09 hES cells; details: for Teratogenicity Potential (μM) Cell Viability: human, 72 h
[6] = tested on: rat whole embryo; details: training and test set; weak/moderate and strong teratogens both labeled teratogen; cited from earlier work
[7] = training set compounds; summarized from TERIS and Briggs et al. 2011; cited from earlier work
[8] = training set; therapeutic peak plasma in vivo concentration, human; cited from earlier work

O=C1NC(=O)C(c2ccccc2)(c2ccccc2)N1 [Diphenylhydantoin]
Classification by o/c ratio in Phase 1 ([1]; teratogenicity threshold of a 12% decrease in the o/c ratio, single concentration): misclassifying
Model Predictions ADMA/Cystine [2]: Non
Humans (known human developmental toxicity) [3]: TER
Known Effect [3]: Ter
ZET prediction [4]: NON^a
Viability Prediction [5]: NON
Teratogenicity Potential (μM) Cell Viability [5]: 288.7 µM
WEC prediction [6]: TER^f,j
Preclinical in vivo and known human developmental effects [7]: Craniofacial, limb,

CC1=C(/C=C/C(C)=C/C=C/C(C)=C\C(=O)O)C(C)(C)CCC1 [13-cis Retinoic Acid]
Cystine abundance relative to the reference treatment [1]: significant increase in abundance
Ornithine abundance relative to the reference treatment [1]: increased
Model Predictions ADMA/Cystine [2]: Ter
Humans (known human developmental toxicity) [3]: TER
Known Effect [3]: Ter
ZET prediction [4]: TER^r
Viability Prediction [5]: NON
Teratogenicity Potential (μM) Cell Viability [5]: >300 µM
Cmax [8]: 2900 nM
WEC prediction [6]: TER^s
Preclinical in vivo and known human developmental effects [7]: Craniofacial, limb, central

CC1=C(/C=C/C(C)=C/C=C/C(C)=C/C(=O)O)C(C)(C)CCC1 [All-trans Retinoic Acid]
Cystine abundance relative to the reference treatment [1]: significant increase in abundance
Ornithine abundance relative to the reference treatment [1]: increased
Model Predictions ADMA/Cystine [2]: Ter
Humans (known human developmental toxicity) [3]: TER
Known Effect [3]: Ter
ZET prediction [4]: TER^c,e,r
Viability Prediction [5]: NON
Teratogenicity Potential (μM) Cell Viability [5]: 114.5 µM
Cmax [8]: 1200 nM
WEC prediction [6]: TER^q,s
Preclinical in vivo and known human developmental effects [7]: Craniofacial, limb, central

NC(=O)N1c2ccccc2C=Cc2ccccc21 [Carbamazepine]
Cystine abundance relative to the reference treatment [1]: significant increase in abundance
Model Predictions ADMA/Cystine [2]: Ter
Humans (known human developmental toxicity) [3]: TER
Known Effect [3]: Ter
ZET prediction [4]: TER^t
Viability Prediction [5]: NON
Teratogenicity Potential (μM) Cell Viability [5]: >300 µM
WEC prediction [6]: TER^j
Preclinical in vivo and known human developmental effects [7]: Craniofacial, central

O=C1CCC(N2C(=O)c3ccccc3C2=O)C(=O)N1 (centres unmarked) [Thalidomide]
Cystine abundance relative to the reference treatment [1]: significant increase in abundance
Model Predictions ADMA/Cystine [2]: Ter
Humans (known human developmental toxicity) [3]: TER
Known Effect [3]: Ter
ZET prediction [4]: TER^d
Viability Prediction [5]: NON
Teratogenicity Potential (μM) Cell Viability [5]: >300 µM
Cmax [8]: 12400 nM
WEC prediction [6]: TER^f
Preclinical in vivo and known human developmental effects [7]: Craniofacial,
